{
  "source": "the NIST ThermoML archive (doi:10.1021/je900064e)",
  "key": {"[1]": {"settings": "101.33 kPa, Liquid; for speed of sound: Sing-around technique in a fixed-path interferometer"}, "[2]": {"assay": "φn = volume fraction of the nth substance listed", "settings": "101 kPa, Liquid, φ1 = 0.5"}},
  "note": "Where “and” joins values, the source holds several entries; their conditions need not be identical. Identical values can stand only once. Numbers after ± are expanded uncertainties.",
  "data": [
    {"smiles": "CN(CCO)CCO", "note": "[N-methyldiethanolamine]", "values": [
      {"measurement": "speed of sound", "setting": "[1]; 288.15 K", "result": "1598.8 ± 3.3", "unit": "m/s"},
      {"measurement": "mass density", "setting": "[1]; 288.15 K, Vibrating tube method", "result": "1044.32 ± 1.2", "unit": "kg/m3"},
      {"measurement": "speed of sound", "setting": "[1]; 293.15 K", "result": "1583.1 ± 3.3", "unit": "m/s"},
      {"measurement": "mass density", "setting": "[1]; 293.15 K, Vibrating tube method", "result": "1040.59 ± 1.2", "unit": "kg/m3"},
      {"measurement": "speed of sound", "setting": "[1]; 298.15 K", "result": "1564.1 ± 3.3", "unit": "m/s"},
      {"measurement": "mass density", "setting": "[1]; 298.15 K, Vibrating tube method", "result": "1036.79 ± 1.2", "unit": "kg/m3"},
      {"measurement": "speed of sound", "setting": "[1]; 303.15 K", "result": "1546 ± 3.2", "unit": "m/s"},
      {"measurement": "mass density", "setting": "[1]; 303.15 K, Vibrating tube method", "result": "1033.06 ± 1.2", "unit": "kg/m3"},
      {"measurement": "speed of sound", "setting": "[1]; 308.15 K", "result": "1531 ± 3.2", "unit": "m/s"},
      {"measurement": "mass density", "setting": "[1]; 308.15 K, Vibrating tube method", "result": "1029.26 ± 1.2", "unit": "kg/m3"},
      {"measurement": "speed of sound", "setting": "[1]; 313.15 K", "result": "1516.1 ± 3.2", "unit": "m/s"},
      {"measurement": "mass density", "setting": "[1]; 313.15 K, Vibrating tube method", "result": "1025.45 ± 1.1", "unit": "kg/m3"},
      {"measurement": "speed of sound", "setting": "[1]; 318.15 K", "result": "1503.2 ± 3.2", "unit": "m/s"},
      {"measurement": "mass density", "setting": "[1]; 318.15 K, Vibrating tube method", "result": "1021.62 ± 1.1", "unit": "kg/m3"},
      {"measurement": "speed of sound", "setting": "[1]; 323.15 K", "result": "1490.4 ± 3.2", "unit": "m/s"},
      {"measurement": "mass density", "setting": "[1]; 323.15 K, Vibrating tube method", "result": "1018.22 ± 1.1", "unit": "kg/m3"}
    ]},
    {"smiles": "CCO", "note": "[ethanol] + O", "values": [
      {"measurement": "mass density", "setting": "[2]; 288.15 K", "result": "930.86 ± 0.7", "unit": "kg/m3"},
      {"measurement": "speed of sound", "setting": "[2]; 288.15 K", "result": "1546.7 ± 3.2", "unit": "m/s"},
      {"measurement": "mass density", "setting": "[2]; 293.15 K", "result": "927.08 ± 0.71", "unit": "kg/m3"},
      {"measurement": "speed of sound", "setting": "[2]; 293.15 K", "result": "1534.1 ± 3.2", "unit": "m/s"},
      {"measurement": "mass density", "setting": "[2]; 298.15 K", "result": "923.22 ± 0.72", "unit": "kg/m3"},
      {"measurement": "speed of sound", "setting": "[2]; 298.15 K", "result": "1521.1 ± 3.2", "unit": "m/s"},
      {"measurement": "mass density", "setting": "[2]; 303.15 K", "result": "919.31 ± 0.73", "unit": "kg/m3"},
      {"measurement": "speed of sound", "setting": "[2]; 303.15 K", "result": "1507.9 ± 3.2", "unit": "m/s"},
      {"measurement": "mass density", "setting": "[2]; 308.15 K", "result": "915.32 ± 0.74", "unit": "kg/m3"},
      {"measurement": "speed of sound", "setting": "[2]; 308.15 K", "result": "1494.5 ± 3.2", "unit": "m/s"},
      {"measurement": "mass density", "setting": "[2]; 313.15 K", "result": "911.27 ± 0.75", "unit": "kg/m3"},
      {"measurement": "speed of sound", "setting": "[2]; 313.15 K", "result": "1480.9 ± 3.2", "unit": "m/s"},
      {"measurement": "mass density", "setting": "[2]; 318.15 K", "result": "908.03 ± 0.76 kg/m3 and 907.3 ± 0.76 kg/m3"},
      {"measurement": "speed of sound", "setting": "[2]; 318.15 K", "result": "1467 ± 3.1", "unit": "m/s"},
      {"measurement": "mass density", "setting": "[2]; 323.15 K", "result": "904.32 ± 0.77 kg/m3 and 903.71 ± 0.77 kg/m3"},
      {"measurement": "speed of sound", "setting": "[2]; 323.15 K", "result": "1452.9 ± 3.1", "unit": "m/s"}
    ]},
    {"smiles": "OCCN(CCO)CCO", "note": "[triethanolamine]", "values": [
      {"measurement": "mass density", "setting": "[1]; 288.15 K", "result": "1126.19 ± 2.2", "unit": "kg/m3"},
      {"measurement": "speed of sound", "setting": "[1]; 288.15 K", "result": "1631.1 ± 3.4", "unit": "m/s"},
      {"measurement": "mass density", "setting": "[1]; 293.15 K", "result": "1123.42 ± 2.1", "unit": "kg/m3"},
      {"measurement": "speed of sound", "setting": "[1]; 293.15 K", "result": "1623.9 ± 3.3", "unit": "m/s"},
      {"measurement": "mass density", "setting": "[1]; 298.15 K", "result": "1120.99 ± 2.1", "unit": "kg/m3"},
      {"measurement": "speed of sound", "setting": "[1]; 298.15 K", "result": "1614.5 ± 3.3", "unit": "m/s"},
      {"measurement": "mass density", "setting": "[1]; 303.15 K", "result": "1118.21 ± 2.1", "unit": "kg/m3"},
      {"measurement": "speed of sound", "setting": "[1]; 303.15 K", "result": "1604.5 ± 3.3", "unit": "m/s"},
      {"measurement": "mass density", "setting": "[1]; 308.15 K", "result": "1115.38 ± 2.1", "unit": "kg/m3"},
      {"measurement": "speed of sound", "setting": "[1]; 308.15 K", "result": "1595.5 ± 3.3", "unit": "m/s"},
      {"measurement": "mass density", "setting": "[1]; 313.15 K", "result": "1112.57 ± 2.1", "unit": "kg/m3"},
      {"measurement": "speed of sound", "setting": "[1]; 313.15 K", "result": "1587 ± 3.3", "unit": "m/s"},
      {"measurement": "mass density", "setting": "[1]; 318.15 K", "result": "1109.78 ± 2.1", "unit": "kg/m3"},
      {"measurement": "speed of sound", "setting": "[1]; 318.15 K", "result": "1578.8 ± 3.3", "unit": "m/s"},
      {"measurement": "mass density", "setting": "[1]; 323.15 K", "result": "1106.93 ± 2", "unit": "kg/m3"},
      {"measurement": "speed of sound", "setting": "[1]; 323.15 K", "result": "1570.6 ± 3.3", "unit": "m/s"}
    ]}
  ]
}
